# From patent publication US20090270435A1 (priority 2006, published 2009)
# Counter-ions that a name gives are not always drawn.
# Assays:
# ACC1 from rat liver = target: T1, ACC1 from rat liver (Rattus norvegicus, UniProt P11497); test: Direct inhibition of ACC1 activity (14C-bicarbonate incorporation); type: biochemical
# T1 construct: The livers (for ACC1 preparation) or skeletal muscle tissue (for ACC2 preparation) are removed; from tissue; host or cells: liver of male CD rats (fasted, then fed a high sucrose diet)
# Summary of the method: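 ACC1 partially purified from livers of fasted/sucrose-refed male rats by PEG and ammonium sulfate fractionation, then preincubated 30 min at 37°C with 10 mM citrate and 1.0 mM MgCl2. Reaction ran 7 min at 37°C, stopped with HCl; acid-stable radioactivity counted by scintillation; HCl-first tubes served as blanks.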
# [1] = target: T2, ACC2 from rat skeletal muscle (Rattus norvegicus, UniProt Q1HEC0); test: Direct inhibition of ACC2 activity (14C-bicarbonate incorporation); type: biochemical
# T2 construct: The livers (for ACC1 preparation) or skeletal muscle tissue (for ACC2 preparation) are removed; from tissue; host or cells: skeletal muscle of male CD rats (fasted, then fed a high sucrose diet)
# T2 sequence (Q1HEC0 17-2455): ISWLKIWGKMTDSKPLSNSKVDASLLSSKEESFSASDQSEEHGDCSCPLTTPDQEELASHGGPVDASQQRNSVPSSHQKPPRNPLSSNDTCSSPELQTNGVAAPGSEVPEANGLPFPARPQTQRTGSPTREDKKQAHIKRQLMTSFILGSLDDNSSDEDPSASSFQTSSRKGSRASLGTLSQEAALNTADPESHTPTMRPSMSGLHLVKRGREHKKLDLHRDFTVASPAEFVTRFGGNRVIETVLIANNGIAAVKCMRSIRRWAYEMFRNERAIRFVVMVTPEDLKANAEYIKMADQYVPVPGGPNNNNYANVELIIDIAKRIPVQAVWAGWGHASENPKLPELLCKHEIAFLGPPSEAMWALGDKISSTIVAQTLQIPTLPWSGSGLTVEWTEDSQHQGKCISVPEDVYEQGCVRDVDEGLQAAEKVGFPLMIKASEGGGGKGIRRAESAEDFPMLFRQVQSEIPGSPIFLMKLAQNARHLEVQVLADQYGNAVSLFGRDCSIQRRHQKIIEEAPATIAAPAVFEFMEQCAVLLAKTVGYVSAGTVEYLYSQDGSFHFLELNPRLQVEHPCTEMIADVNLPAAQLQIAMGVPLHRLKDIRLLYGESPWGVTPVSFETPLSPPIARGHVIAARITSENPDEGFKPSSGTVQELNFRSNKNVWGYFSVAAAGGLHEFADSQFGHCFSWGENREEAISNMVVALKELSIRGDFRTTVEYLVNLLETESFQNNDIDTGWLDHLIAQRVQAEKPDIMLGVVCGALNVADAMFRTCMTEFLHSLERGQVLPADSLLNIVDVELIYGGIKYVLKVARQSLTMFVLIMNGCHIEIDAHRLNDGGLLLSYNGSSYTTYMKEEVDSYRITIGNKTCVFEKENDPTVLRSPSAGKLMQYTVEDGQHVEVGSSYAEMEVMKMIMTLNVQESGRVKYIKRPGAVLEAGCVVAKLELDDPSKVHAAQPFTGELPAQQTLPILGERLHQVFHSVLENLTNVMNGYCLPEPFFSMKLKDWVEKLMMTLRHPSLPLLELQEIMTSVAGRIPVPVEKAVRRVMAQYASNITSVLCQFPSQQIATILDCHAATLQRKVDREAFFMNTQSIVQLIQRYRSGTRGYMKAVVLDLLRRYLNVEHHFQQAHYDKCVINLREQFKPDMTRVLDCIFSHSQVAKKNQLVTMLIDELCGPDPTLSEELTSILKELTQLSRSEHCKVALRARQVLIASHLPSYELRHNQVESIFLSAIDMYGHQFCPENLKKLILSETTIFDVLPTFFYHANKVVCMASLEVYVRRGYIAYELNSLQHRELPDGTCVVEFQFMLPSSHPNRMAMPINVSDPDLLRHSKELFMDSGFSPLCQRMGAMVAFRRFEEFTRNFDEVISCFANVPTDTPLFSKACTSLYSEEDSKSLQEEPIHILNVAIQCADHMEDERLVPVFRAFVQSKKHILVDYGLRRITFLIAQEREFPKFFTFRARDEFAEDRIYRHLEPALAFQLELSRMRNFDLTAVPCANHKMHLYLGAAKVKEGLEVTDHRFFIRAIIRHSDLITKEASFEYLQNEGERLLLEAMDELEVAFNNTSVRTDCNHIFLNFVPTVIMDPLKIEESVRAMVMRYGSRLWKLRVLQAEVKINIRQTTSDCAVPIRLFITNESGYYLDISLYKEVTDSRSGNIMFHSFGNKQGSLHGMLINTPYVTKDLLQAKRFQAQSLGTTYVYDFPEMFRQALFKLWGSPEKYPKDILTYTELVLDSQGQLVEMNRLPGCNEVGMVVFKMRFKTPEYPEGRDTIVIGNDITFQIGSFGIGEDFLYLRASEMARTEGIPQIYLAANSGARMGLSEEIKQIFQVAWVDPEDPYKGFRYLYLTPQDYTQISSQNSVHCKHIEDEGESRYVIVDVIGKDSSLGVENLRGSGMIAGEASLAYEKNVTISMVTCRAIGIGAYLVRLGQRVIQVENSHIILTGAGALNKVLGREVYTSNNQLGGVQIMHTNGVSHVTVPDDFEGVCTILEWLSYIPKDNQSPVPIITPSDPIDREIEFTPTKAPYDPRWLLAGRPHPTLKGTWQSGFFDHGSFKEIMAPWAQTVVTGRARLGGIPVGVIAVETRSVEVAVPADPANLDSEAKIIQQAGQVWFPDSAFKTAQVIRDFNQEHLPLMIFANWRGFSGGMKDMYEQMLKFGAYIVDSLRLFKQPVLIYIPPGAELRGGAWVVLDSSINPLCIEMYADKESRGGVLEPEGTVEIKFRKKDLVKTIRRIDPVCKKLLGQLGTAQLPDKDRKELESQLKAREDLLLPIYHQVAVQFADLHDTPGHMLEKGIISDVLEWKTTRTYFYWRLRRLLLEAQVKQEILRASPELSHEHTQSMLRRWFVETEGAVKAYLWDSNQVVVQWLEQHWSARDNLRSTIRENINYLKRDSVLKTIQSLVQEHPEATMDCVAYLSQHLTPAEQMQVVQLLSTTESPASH
# Protocol: For example direct inhibition of ACC1 and ACC2 activity, for compounds of Formula (1) were determined using preparations of ACC1 from rat liver and ACC2 from rat skeletal muscle.
# [1] Preparation of ACC1 and ACC2. ACC1 was obtained from rat liver and ACC2 was obtained from rat skeletal muscle based upon standard procedures such as those described by Thampy and Wakil (J. Biol. Chem. 260: 6318-6323; 1985) using the following method.
# Male CD rats weighing 150-200 g are fasted for 2 days and then fed a high sucrose diet (AIN-76A rodent diet; Cat # D10001, Research Diets Inc., New Brunswick, N.J.), for 3 days at which time they are sacrificed by CO2 asphyxiation. The livers (for ACC1 preparation) or skeletal muscle tissue (for ACC2 preparation) are removed, rinsed in ice-cold phosphate-buffered saline (PBS), and homogenized in 5 volumes of homogenization buffer (50 mM potassium phosphate, pH 7.5, 10 mM EDTA, 10 mM 2-mercaptoethanol, 2 mM benzamidine, 0.2 mM phenylmethylsulfonylfluoride (PMSF), 5 mg/L each leupeptin, aprotinin, and antitrypsin) in a Waring® blender for 1 minute at 4° C. All subsequent operations are carried out at 4° C. The homogenate is made 3% with respect to polyethylene glycol (PEG) by the addition of 50% PEG solution and centrifuged at 20,000×g for 15 minutes. The resulting supernatant is adjusted to 5% PEG with the addition of 50% PEG solution and stirred for 5 minutes. The pellet (contains ACC activity) is collected by centrifugation at 20,000×g for 20 minutes, rinsed with Ice-cold doubly distilled water to remove excess PEG and re-suspended in one-fourth the original homogenate volume with homogenization buffer. Ammonium sulfate (200 g/liter) is slowly added with stirring. After 45 minutes the enzyme is collected by centrifugation for 30 minutes at 20,000×g, re-suspended in 10 ml of 50 mM HEPES, pH7.5, 0.1 mM DTT, 1.0 mM EDTA, and 10% glycerol and desalted on a Sephadex™ G-25 column (2.5 cm-x 50 cm) (Pharmacia, Piscataway N.J. now GE Healthcare) […] equilibrated with the same buffer. The desalted enzyme preparation is stored in aliquots at −70° C. Immediately prior to use, frozen ACC1 or ACC2 aliquots are thawed, diluted to 500 μg/ml in buffer containing 50 mM HEPES, pH7.5, 1.0 mM MgCl2, 10 mM tripotassium citrate, 2.0 mM dithiothreitol (DTT), and 0.75 mg/ml fatty acid-free bovine serum albumin (BSA) and pre-incubated at 37° C. for 30 minutes.
# [2] Measurement of ACC inhibition. The procedures for measuring ACC1 inhibition and ACC2 inhibition are identical except for the source of the isozyme. For measurement of ACC activity and assessment of ACC inhibition, test compounds are dissolved in dimethylsulfoxide (DMSO) and 1 μL aliquots are placed in 0.5 ml polypropylene tubes. Control tubes contain 1 μL of DMSO alone. Tubes are incubated at 37° C. in a constant temperature water bath. […] The reaction is then initiated by the addition of 10 μL of preincubated ACC fraction prepared as described above. After 7 minutes the reaction is terminated by the addition of 50 μL of 6N HCl and a 150 μL aliquot of the reaction mixture is transferred to glass scintillation vials and evaporated to dryness at 90° C. for at least 1 hour. The dried vials are then cooled, 0.5 ml of water and 5.5 ml of Ready Safe liquid scintillation fluid (Beckman Coulter Inc., Fullerton, Calif.) are added, and the radioactivity is determined using a liquid scintillation counter. Tubes that received HCl before ACC served as blanks.
# [3] Specificity for ACC1 vs ACC2 inhibition. The specificity of a compound for Inhibiting ACC1 vs ACC2 can be determined by comparing the concentration of test compound required to inhibit 50% of the activity contained in an aliquot of ACC1 as compared with the concentration of the same compound required to inhibit 50% of the activity of an aliquot of ACC2.
Compound,IC50 (ACC1 from rat liver; ACC1 from rat liver),IC50 ([1]; ACC2 from rat skeletal muscle),other results
"Cc1cc(C(=O)N2CCC3(CC2)CC(=O)c2cc(OC(C)C)ccc2O3)cc2cn[nH]c12 [Ex. A3, 6-isopropoxy-1′-[(7-methyl-1H-indazol-5-yl)carbonyl]spiro[chromene-2,4′-piperidin]-4(3H)-one]",14.5 nM,17.2 nM,
"CCOc1ccc2c(c1)C(=O)CC1(CCN(C(=O)c3cc(C)c4[nH]ncc4c3)CC1)O2 [Ex. A4, 6-ethoxy-1′-[(7-methyl-1H-indazol-5-yl)carbonyl]spiro[chromene-2,4′-piperidin]-4(3H)-one]",19.5 nM,29.9 nM,
"COc1ccc2c(c1)C(=O)CC1(CCN(C(=O)c3cc(Cl)c4[nH]ncc4c3)CC1)O2 [Ex. B5, 1′-[(7-chloro-1H-indazol-5-yl)carbonyl]-6-methoxyspiro[chromene-2,4′-piperidin]-4(3H)-one]",81 nM,231 nM,
"CCOc1ccc2c(c1)C(=O)CC1(CCN(C(=O)c3cc(Cl)c4[nH]ncc4c3)CC1)O2 [Ex. B3, 1′-[(7-chloro-1H-indazol-5-yl)carbonyl]-6-ethoxyspiro[chromene-2,4′-piperidin]-4(3H)-one]",21.4 nM,34.3 nM,
"CC(C)Oc1ccc2c(c1)C(=O)CC1(CCN(C(=O)c3cc(Cl)c4[nH]ncc4c3)CC1)O2 [Ex. B2, 1′-[(7-chloro-1H-indazol-5-yl)carbonyl]-6-isopropoxyspiro[chromene-2,4′-piperidin]-4(3H)-one]",16.1 nM,31.1 nM,
"Cc1cc2c(cc1Cl)C(=O)CC1(CCN(C(=O)c3cccc(-c4cc[nH]n4)c3)CC1)O2 [Ex. M3, 6-chloro-7-methyl-1′-[3-(1H-pyrazol-3-yl)benzoyl]spiro[chromene-2,4′-piperidin]-4(3H)-one]",,,IC50 (ACC1 from rat liver; Table of Examples M1-M36): 105 nM; IC50 ([1]; Table of Examples M1-M36): 434 nM
"COc1ccc2c(c1)C(=O)CC1(CCN(C(=O)c3cc(C)c4[nH]ncc4c3)CC1)O2 [Ex. A7, 6-methoxy-1′-[(7-methyl-1H-indazol-5-yl)carbonyl]spiro[chromene-2,4′-piperidin]-4(3H)-one trifluoroacetic acid salt]",32.5 nM,138 nM,
"Cc1cc2c(cc1Cl)C(=O)CC1(CCN(C(=O)c3cc(Cl)c4[nH]ncc4c3)CC1)O2 [Ex. B4, 6-chloro-7-methyl-1′-[(7-chloro-1H-indazol-5-yl)carbonyl]spiro[chromene-2,4′-piperidin]-4(3H)-one]",56.8 nM,127 nM,
"COc1cc(C)c2c(c1)OC1(CCN(C(=O)c3cccc(-c4ccn[nH]4)c3)CC1)CC2=O [Ex. O4, 7-methoxy-5-methyl-1′-[3-(1H-pyrazol-5-yl)benzoyl]spiro[chromene-2,4′-piperidin]-4(3H)-one]",,,IC50 (ACC1 from rat liver; Table of Examples O1-O4): 468 nM
"N#Cc1ccc2c(c1)C(=O)CC1(CCN(C(=O)c3cccc(-c4cc[nH]n4)c3)CC1)O2 [Ex. M33, 4-oxo-1′-[3-(1H-pyrazol-3-yl)benzoyl]3,4-dihydrospiro[chromene-2,4′-piperidine]-6-carbonitrile]",,,IC50 (ACC1 from rat liver; Table of Examples M1-M36): 816 nM; IC50 ([1]; Table of Examples M1-M36): 1860 nM
"COc1ccc2c(c1)OC1(CCN(C(=O)c3cccc(-c4cc[nH]n4)c3)CC1)CC2=O [Ex. M25, 7-methoxy-1′-[3-(1H-pyrazol-3-yl)benzoyl]spiro[chromene-2,4′-piperidin]-4(3H)-one]",,,IC50 (ACC1 from rat liver; Table of Examples M1-M36): 481 nM
"Cc1cc(C(=O)N2CCC3(CC2)CC(=O)c2ccc(C#N)cc2O3)cc2cn[nH]c12 [Ex. A32, 1′-[(7-methyl-1H-indazol-5-yl)carbonyl]H-oxo-3,4-dihydrospiro[chromene-2,4′-piperidine]-7-carbonitrile]",277 nM,,

# Now from value to compound, other results behind:
IC50 (ACC1 from rat liver; ACC1 from rat liver),IC50 ([1]; ACC2 from rat skeletal muscle),Compound,other results
48.3 nM,54.8 nM,"CC(C)Oc1ccc2c(c1)C(=O)CC1(CCN(C(=O)c3cccc(-c4cc[nH]n4)c3)CC1)O2 [Ex. N3, 6-isopropoxy-1′-[3-(1H-pyrazol-3-yl)benzoyl]spiro[chromene-2,4′-piperidin]-4(3H)-one]",
126 nM,,"COC(=O)c1ccc2c(c1)C(=O)CC1(CCN(C(=O)c3ccc4c(C)n[nH]c4c3)CC1)O2 [Ex. F4, methyl 1′-[(3-methyl-1H-indazol-6-yl)carbonyl]-4-oxo-3,4-dihydrospiro[chromene-2,4′-piperidine]-6-carboxylate]",
> 1000 nM,,"1′-[(7-bromo-1H-indazol-6-yl)carbonyl]-6-chlorospiro[chromene-2,4′-piperidin]-4(3H)-one [Ex. G5]",
43.2 nM,91.7 nM,"CCOc1ccc2c(c1)C(=O)CC1(CCN(C(=O)c3cccc(-c4cc[nH]n4)c3)CC1)O2 [Ex. N2, 6-ethoxy-1′-[3-(1H-pyrazol-3-yl)benzoyl]spiro[chromene-2,4′-piperidin]-4(3H)-one]",
49.2 nM,,"COc1ccc2c(c1)C(=O)CC1(CCN(C(=O)c3ccc4c(C)n[nH]c4c3)CC1)O2 [Ex. F2, 6-methoxy-1′-[(3-methyl-1H-indazol-yl)carbonyl]spiro[chromene-2,4′-piperidin]-4(3H)-one]",
345 nM,,"Cc1cc2c(cc1Cl)C(=O)CC1(CCN(C(=O)c3cc(Br)cc4cn[nH]c34)CC1)O2 [Ex. J1, 1′-[(5-bromo-1H-indazol-7-yl)carbonyl]-6-chloro-7-methylspiro[chromene-2,4′-piperidin]-4(3H)-one]",
